This test has as its target T1, Folate receptor (Homo sapiens, UniProt P15328).
T1 construct: host or cells: KB cells (human cervical carcinoma cell line, HeLa subclone)
Description: Folate receptor binding affinity (displacement of ^3H-folic acid on KB tumor cells). As to conditions: ^3H-folic acid 0.84 nM, 4° C., 30 min, read-out: FR-binding affinity IC50.
Description: Cell Culture: KB cells (human cervical carcinoma cell line, HeLa subclone; ACC-136) were purchased from the German Collection of Microorganisms and Cell Cultures (DSMZ, Braunschweig, Germany). The cells were cultured as monolayers at 37° C. in a humidified atmosphere containing 5% CO2. […] FFRPMI medium was supplemented with 10% heat-inactivated fetal calf serum (FCS, as the only source of folate), L-glutamine and antibiotics (penicillin/streptomycin/fungizone). Routine culture treatment was performed twice a week with EDTA (2.5 mmol/l) in PBS.
After incubation, Eppendorf tubes containing the cell suspensions were centrifuged at 4° C. for 5 min and the supernatant was removed. By addition of 0.5 ml of NaOH 1 M the cell pellets were lysed and transferred into scintillation tubes containing 5 ml of scintillation cocktail (Ultima Gold; Perkin Elmer). Radioactivity was measured using a liquid scintillation analyzer (Tri-Carb 1900 TR, Packard) and an inhibitory concentration of 50% was determined from displacement curves using GraphPad Prism (version 5.01) software.

T1 sequence (P15328 25-234): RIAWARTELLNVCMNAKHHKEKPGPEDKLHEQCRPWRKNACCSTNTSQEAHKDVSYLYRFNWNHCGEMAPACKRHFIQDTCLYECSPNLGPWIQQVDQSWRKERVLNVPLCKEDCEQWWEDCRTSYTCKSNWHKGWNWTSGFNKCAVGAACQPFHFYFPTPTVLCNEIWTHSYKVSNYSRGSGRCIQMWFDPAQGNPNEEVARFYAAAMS

On to `Nc1nc2ncc(CNc3ccc(C(=O)N[C@@H](CCC(=O)O)C(=O)O)c(F)n3)nc2c(=O)[nH]1` [3′-aza-2′-fluorofolic acid], for which the concentration for half-maximal inhibition (IC50) is 0.81 ± 0.18 nM.

In general, IC50 refers to the concentration at which inhibition is half-maximal.

Source of the values: patent US10357576B2, “18F-labelled folate/antifolate analogues” (MERCK & CIE, priority 2012, dated 2019).
